Experimental data taken from patent US12385839B2, “Use of protein in predicting drug properties” (priority 2021, dated 2025).
Like-named read-outs stand apart in the source and are kept apart here.

How the values were obtained:
[1] = molecular target: T1, human serum albumin (HSA) (Homo sapiens, UniProt P02768); assay: Fluorescence emission spectrum (quenching) of HSA with carbamate pesticides; assay type: binding; conditions: for Ksv (37°) / ΔG(37°) / Binding distance/r / Number of binding sites/n: modelling table; for Kq / Ksv / n (number of binding sites) / Kd: pH 7.4; for R (binding distance): Förster energy transfer; for fluorescence of HSA quenched by pesticide: titration of pesticide; for ΔH^0 / ΔS^0: Van't Hoff, 296-310 K
Procedure: the mixed solution to be tested was preheated at […] for 3 minutes, and the emission spectrum of HSA with carbamate pesticides was measured at 300-500 nm . The excitation wavelength was set at 280 nm , and the slit width for both excitation and emission was 15 nm; the HSA concentration was kept constant at 5×10^−7 M, and the pesticide concentration was (0-105)×10^−7 M.
The internal filtering effect of fluorescence signal was corrected according to the following formula: Fcor=Fobsexp[(Aex+Aem)/2] (1);
in this formula, Fcor and Fobs represent corrected fluorescence signal and observed fluorescence signal, respectively, and Aex and Aem represent absorbance of the mixed solution to be tested at excitation wavelength and emission wavelengths, respectively; the quenching constant, number of binding sites, binding constant, free energy and binding distance of different drugs were obtained by fluorescence emission spectra, and a BP neural network model was obtained. Specifically, they were obtained as follows:
There is a linear relationship between F0/F and [Q] to distinguish whether it is static quenching or dynamic quenching. The fluorescence quenching data are analyzed by Stern-Volmer equation to clarify the quenching mechanism: F0/F=1+KSV[Q]=1+Kqτ0[Q] (2);
in the formula, F0 and F are fluorescence signals […] quencher, respectively. Ksv is Stern-Volmer quenching constant; Kq is a quenching rate constant of biomolecules; τ0 is the average lifetime of biomolecules without quencher (about 10^−8 s); [Q] is the concentration of quencher.
The maximum dynamic quenching rate constant of all kinds of quenchers on polymers was 2.0×10^10 L·mol^−1·s^−1. Static quenching and dynamic quenching could be judged according to this value. If K^q was greater than 2.0×10^10 L·mol^−1·s^−1, it belonged to static quenching. Otherwise, it belonged to dynamic quenching.
In this part, the binding sites and binding constants between carbamate pesticides and HSA were calculated. The following formula was used to calculate the number of binding sites (n) and the binding constant (Ka) of carbamate pesticides and HSA: log[(F0−F)/F]=log Ka+nlog[Q] (3);
The interactions between biological molecules and drug molecules were weak intermolecular interactions, including hydrogen bonds, van der Waals forces, electrostatic forces and hydrophobic interactions. By using Van't Hoff equation, the thermodynamic constants of drug-protein interaction were obtained, and the main types of drug-protein interaction were judged according to the changes of binding constants under different conditions. LnK=−ΔH^0/RT+ΔS^0/R (4); ΔG^0=ΔH^0−TΔS^0 (5);
There is a relationship among energy transfer efficiency E, distance r between energy donor and energy receptor and energy transfer distance R0. E=1−F/F0=R0^6/(R0^6+r^6) (6);
E represents the transfer efficiency between donor and receptor, r is the average distance between donor and receptor, and R0 is the critical distance when the transfer efficiency is 50%. R0^6=8.79×10^−K^2N^−4φJ (7)
K^2 is the orientation related to the geometry of donor and receptor of dipole. For random orientation in fluid, K^2=2/3; N is the average refractive index of the medium in the wavelength range with obvious spectral overlap, and the refractive index of water and organic matter is 1.336; φ is the quantum yield of donor, and the quantum yield of tryptophan in HSA is about 0.118; J represents the influence of spectral overlap between the emission spectrum of the donor and the absorption spectrum of the receptor, and can be calculated by the following formula: j=ΣF(λ)ϵ(λ)λ^4Δλ/ΣF(λ) Δλ (8);
F(λ) is the corrected fluorescence signal of the donor in the wavelength range from λ to (λ+Δλ), while ϵ(λ) is the extinction coefficient of the receptor at λ.

[2] = molecular target: T1, human serum albumin (HSA); assay: Circular dichroism spectrum, secondary structure (α-helix content) of HSA; conditions: HSA 2×10^−6 M
Procedure: the mixed solution to be tested was preheated at […] for 2-5 minutes, and the CD spectrum of HSA was recorded in the wavelength range of 200-500 nm . The concentration of HSA was kept at 2×10^−6 M, and the pesticide was (0-20)×10^−6 m. Firstly, HSA was measured, and then the ratio of HSA to pesticides needed to be determined specifically, which was preliminarily determined according to the ratio of 1:1, 1:2 and 1:3.
According to the following equation, the result of CD spectrum was usually expressed as the mean residue ellipticity (MRE), and the unit was deg·cm^2·dmol^−1. MRE=ObservedCD(mdeg)/(10Cpnl) (9);
in which Cp is the molar concentration of protein, n is the number (585) of amino acid residues, and 1 is the path length (1 mm). The α helicity of free and bound HSA is calculated from MRE values using the following formula: α−Helix(%)=[(−MRE208−4000)×100]/(33000-4000) (10)
in which the MRE208 is the MRE value observed at 208 nm , 4000 is the MRE value of random coil conformation at 208 nm , and […] is the MRE value of pure α helix at 208 nm .

[3] = cited from earlier work; for LD50: modelling table; for Toxicity: toxicity grade by LD50, trailing figure = number of pesticides in group
[4] = 296 K, read-out: Ka (binding constant)
[5] = 303 K, read-out: Ka (binding constant)
[6] = 310 K, read-out: Ka (binding constant)

T1 sequence (P02768 25-609): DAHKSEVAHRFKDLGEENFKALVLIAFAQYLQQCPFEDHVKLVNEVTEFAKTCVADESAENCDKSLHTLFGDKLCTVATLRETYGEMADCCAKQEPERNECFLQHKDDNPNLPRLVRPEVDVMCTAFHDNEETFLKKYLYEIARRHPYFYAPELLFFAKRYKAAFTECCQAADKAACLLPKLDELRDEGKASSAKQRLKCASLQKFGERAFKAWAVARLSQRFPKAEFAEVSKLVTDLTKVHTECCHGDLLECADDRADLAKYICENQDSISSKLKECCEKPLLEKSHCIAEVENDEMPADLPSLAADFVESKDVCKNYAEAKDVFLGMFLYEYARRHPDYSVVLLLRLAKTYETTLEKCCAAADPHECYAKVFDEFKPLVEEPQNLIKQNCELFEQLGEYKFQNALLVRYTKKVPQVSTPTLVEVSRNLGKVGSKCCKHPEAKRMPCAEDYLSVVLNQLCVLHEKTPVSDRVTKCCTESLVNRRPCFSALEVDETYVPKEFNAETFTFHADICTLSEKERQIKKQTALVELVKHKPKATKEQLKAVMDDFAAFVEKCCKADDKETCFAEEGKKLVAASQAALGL

## CNC(=O)ON=C(C)SC [Methomyl, methomyl]
[1]
  Ksv (37°): 52883.69408
  ΔG(37°): −21.14
  ΔH^0: 21.433 kcal/mol
  ΔS^0: 357.453 J · mol^−1 · K^−1
  Binding distance/r: 2.145
  Number of binding sites/n: 0.7657
[1]; 296 K
  ΔG^0: -3.8554 kcal/mol
  Kq: 3.401 ± 0.068 10^12 M^−1s^−1
  Ksv: 3.401 ± 0.068 10^4 M^−1
  n (number of binding sites): 0.661 ± 0.003
[1]; [4]
  Kd: 1460 µM
[1]; 303 K
  ΔG^0: -4.4534 kcal/mol
  Kq: 4.025 ± 0.136 10^12 M^−1s^−1
  Ksv: 4.025 ± 0.136 10^4 M^−1
  n (number of binding sites): 0.727 ± 0.008
[1]; [5]
  Kd: 579 µM
[1]; 310 K
  ΔG^0: -5.0514 kcal/mol
  R (binding distance): 2.145 nm
  Kq: 5.288 ± 0.093 10^12 M^−1s^−1
  Ksv: 5.288 ± 0.093 10^4 M^−1
  n (number of binding sites): 0.766 ± 0.002
  fluorescence of HSA quenched by pesticide: quenched
[1]; [6]
  Kd: 283 µM
[2]; 5:1 (Pesticide:HSA)
  α-helix contents: 50.756%
[2]; 10:1 (Pesticide:HSA)
  α-helix contents: 49.970%
[3]
  LD50: 14.7 mg/kg
  Toxicity: Highly

## CNC(=O)Oc1cccc(C)c1 [Metolcarb, metolcarb]
[1]
  Ksv (37°): 44415.60221
  ΔG(37°): −16.22
  ΔH^0: 11.633 kcal/mol
  ΔS^0: 209.338 J · mol^−1 · K^−1
  Binding distance/r: 2.525
  Number of binding sites/n: 0.6156
[1]; 296 K
  ΔG^0: -3.1766 kcal/mol
  Kq: 3.261 ± 0.020 10^12 M^−1s^−1
  Ksv: 3.261 ± 0.020 10^4 M^−1
  n (number of binding sites): 0.564 ± 0.012
[1]; 303 K
  ΔG^0: -3.5268 kcal/mol
  Kq: 3.415 ± 0.159 10^12 M^−1s^−1
  Ksv: 3.415 ± 0.159 10^4 M^−1
  n (number of binding sites): 0.587 ± 0.001
[1]; 310 K
  ΔG^0: -3.8772 kcal/mol
  R (binding distance): 2.525 nm
  Kq: 4.442 ± 0.118 10^12 M^−1s^−1
  Ksv: 4.442 ± 0.118 10^4 M^−1
  n (number of binding sites): 0.616 ± 0.003
  fluorescence of HSA quenched by pesticide: quenched
[1]; Ka (binding constant), 296 K
  Kd: 4450 µM
[1]; Ka (binding constant), 303 K
  Kd: 2950 µM
[1]; Ka (binding constant), 310 K
  Kd: 1820 µM
[2]; 5:1 (Pesticide:HSA)
  α-helix contents: 53.549%
[2]; 10:1 (Pesticide:HSA)
  α-helix contents: 53.215%
[3]
  LD50: 268 mg/kg
  Toxicity: Moderately

## CNC(=O)O/N=C(\SC)C(=O)N(C)C [Oxamyl, oxamyl]
[1]
  Ksv (37°): 66054.55780
  ΔG(37°): −22.83
  ΔH^0: 7.7713 kcal/mol
  ΔS^0: 178.534 J · mol^−1 · K^−1
  Binding distance/r: 2.564
  Number of binding sites/n: 0.8074
[1]; 296 K
  ΔG^0: -4.8592 kcal/mol
  Kq: 5.229 ± 0.185 10^12 M^−1s^−1
  Ksv: 5.229 ± 0.185 10^4 M^−1
  n (number of binding sites): 0.774 ± 0.016
[1]; [4]
  Kd: 255 µM
[1]; 303 K
  ΔG^0: -5.158 kcal/mol
  Kq: 5.735 ± 0.073 10^12 M^−1s^−1
  Ksv: 5.735 ± 0.073 10^4 M^−1
  n (number of binding sites): 0.789 ± 0.004
[1]; [5]
  Kd: 195 µM
[1]; 310 K
  ΔG^0: -5.4567 kcal/mol
  R (binding distance): 2.564 nm
  Kq: 6.605 ± 0.058 10^12 M^−1s^−1
  Ksv: 6.605 ± 0.058 10^4 M^−1
  n (number of binding sites): 0.807 ± 0.003
  fluorescence of HSA quenched by pesticide: quenched
[1]; [6]
  Kd: 141 µM
[2]; 5:1 (Pesticide:HSA)
  α-helix contents: 50.883%
[2]; 10:1 (Pesticide:HSA)
  α-helix contents: 49.354%
[3]
  LD50: 2.5 mg/kg
  Toxicity: Highly

## CNC(=O)Oc1cc(C)cc(C(C)C)c1 [Promecarb, promecarb]
[1]
  Ksv (37°): 58172.07681
  ΔG(37°): −21.38
  ΔH^0: 30.0872 kcal/mol
  ΔS^0: 475.061 J · mol^−1 · K^−1
  Binding distance/r: 2.316
  Number of binding sites/n: 0.7688
[1]; 296 K
  ΔG^0: -3.5213 kcal/mol
  Kq: 2.409 ± 0.154 10^12 M^−1s^−1
  Ksv: 2.409 ± 0.154 10^4 M^−1
  n (number of binding sites): 0.645 ± 0.004
[1]; 303 K
  ΔG^0: -4.316 kcal/mol
  Kq: 3.705 ± 0.060 10^12 M^−1s^−1
  Ksv: 3.705 ± 0.060 10^4 M^−1
  n (number of binding sites): 0.704 ± 0.008
[1]; 310 K
  ΔG^0: -5.1107 kcal/mol
  R (binding distance): 2.316 nm
  Kq: 5.817 ± 0.219 10^12 M^−1s^−1
  Ksv: 5.817 ± 0.219 10^4 M^−1
  n (number of binding sites): 0.769 ± 0.009
  fluorescence of HSA quenched by pesticide: quenched
[1]; Ka (binding constant), 296 K
  Kd: 2430 µM
[1]; Ka (binding constant), 303 K
  Kd: 822 µM
[1]; Ka (binding constant), 310 K
  Kd: 241 µM
[2]; 5:1 (Pesticide:HSA)
  α-helix contents: 48.610%
[2]; 10:1 (Pesticide:HSA)
  α-helix contents: 48.538%
[3]
  LD50: 35 mg/kg
  Toxicity: Highly
